Laboratory results as given in patent US8299214B2 (priority 2006, dated 2012).
Residues, ends and D or L forms follow the SMILES beside them. No end group written: not given here. *: point of attachment. Stearoyl = CCCCCCCCCCCCCCCCCC(=O)*

What was measured:
[1] = tested on: influenza virus A/Puerto Rico/8/34 strain (H1N1); settings: for IC50: influenza virus A/Puerto Rico/8/34 strain
[2] = tested on: influenza virus A/Aichi/2/68 strain (H3N2); settings: for IC50: influenza virus A/Aichi/2/68 strain
hemagglutinin = hemagglutinin (Influenza A virus, UniProt P03437); settings: read-out: binding constant between hemagglutinin and free sialyl lactose (K0); evaluation by NMR, reported; cited from earlier work
[3] = tested on: hemagglutinin (immobilized H3N2); assay: Biacore binding of synthetic peptides to H3N2 immobilized on Sensor Chip CM5; design: species or system influenza virus type A A/Wuhan/359/95 (H3N2); settings: for order of binding strength to hemagglutinin: Biacore; for relative value of resonance (amount of binding) with A-1 taken as 1: peptide concentration 200 μM
[4] = tested on: hemagglutinin (HA), ether extract of type A subtype H3 A/Wuhan/359/95 (H3N2); assay: Phage ELISA, binding of peptide-presenting phages to immobilized hemagglutinin (H3N2); design: species or system influenza virus type A A/Wuhan/359/95 (H3N2)
[5] = biological target: hemagglutinin (HA), ether extract of type A subtype H1 A/PR/8/34 (H1N1) (Influenza A virus, UniProt P03452)
[6] = biological target: binding of hemagglutinin (H3) to GM3; assay: ELISA inhibition of GM3-hemagglutinin interaction using GM3 cast membrane; design: species or system influenza virus
Description: Inhibition of the interaction between GM3 and hemagglutinin (HA) was evaluated by ELISA using the GM3 cast membrane (Kazuhiro Nagata and Hiroshi Handa, “Seibutsu Busshitsu Sogosayo no Real-time Kaiseki Jikkenho—BIACORE wo Chushin Ni (Real-time Analysis Experimental Procedures on Biological Substance Interaction—Focusing on BIOCORE), Springer-Verlag Inc., Tokyo, 1998)”). […] In addition, it has been reported from an evaluation by NMR that the binding constant between hemagglutinin and free sialyl lactose is in the order of mM (e.g. α (2, 3)-sialyllactose K0=3.2 mM). Therefore, the results presented in this Example were largely consistent with the inhibition constant of the peptides reported by Inoue. Moreover, the results presented in this Example are in the same order of magnitude as, or one order smaller than, the inhibition constant of A-1 or the binding constant obtained with sialyl lactose.

hemagglutinin (HA), ether extract of type A subtype H1 A/PR/8/34 (H1N1), sequence (P03452 18-565): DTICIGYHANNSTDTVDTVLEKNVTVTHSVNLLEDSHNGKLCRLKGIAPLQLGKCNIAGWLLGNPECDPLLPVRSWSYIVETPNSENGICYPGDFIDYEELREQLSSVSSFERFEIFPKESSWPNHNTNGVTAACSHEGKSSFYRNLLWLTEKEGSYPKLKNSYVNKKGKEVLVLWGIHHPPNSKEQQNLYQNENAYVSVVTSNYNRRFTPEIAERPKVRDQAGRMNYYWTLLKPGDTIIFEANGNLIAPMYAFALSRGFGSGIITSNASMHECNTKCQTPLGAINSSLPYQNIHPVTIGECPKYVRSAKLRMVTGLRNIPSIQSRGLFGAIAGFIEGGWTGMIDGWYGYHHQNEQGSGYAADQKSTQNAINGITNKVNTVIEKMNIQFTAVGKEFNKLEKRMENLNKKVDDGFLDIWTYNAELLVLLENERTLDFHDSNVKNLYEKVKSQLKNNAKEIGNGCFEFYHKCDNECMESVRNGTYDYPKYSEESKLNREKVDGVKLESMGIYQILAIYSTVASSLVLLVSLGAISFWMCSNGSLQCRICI

Compound	IC50 [1] [µM]	IC50 [2] [µM]	order of binding strength to hemagglutinin [3]	other results
CCCCCCCCCCCCCCCCCC(=O)N[C@@H](CCCNC(=N)N)C(=O)N1CCC[C@H]1C(=O)N[C@@H](CC(C)C)C(=O)N[C@@H](CCCNC(=N)N)C(=O)N[C@@H](C)C(N)=O [C18-s2(r1-5), C18-RPLRA] (Stearoyl-RPLRA-NH2)	0.55	0.94		inhibition of H1N1 influenza virus infection (in words) ([1]; MDCK cells, plaque assay): more strongly than C18-s2 (r1-8); inhibition of H3N2 influenza virus infection (in words) ([2]; MDCK cells, plaque assay): more strongly than C18-s2 (r1-8)
CCCCCCCCCCCCCCCCCC(=O)N[C@H](C(=O)N[C@@H](CCSC)C(=O)N[C@H](C(=O)N[C@@H](CCCNC(=N)N)C(=O)N1CCC[C@H]1C(=O)N[C@@H](CC(C)C)C(=O)N[C@@H](CCCNC(=N)N)C(=O)N[C@@H](C)C(N)=O)[C@@H](C)O)C(C)C [C18-s2(r1-8), C18-VMTRPLRA] (Stearoyl-VMTRPLRA-NH2)	93	226		
CCCCCCCCCCCCCCCCCC(=O)N[C@@H](C)C(=O)N[C@@H](CCCNC(=N)N)C(=O)N[C@@H](CC(C)C)C(=O)N1CCC[C@H]1C(=O)N[C@@H](CCCNC(=N)N)C(=O)N[C@H](C(=O)N[C@@H](CCSC)C(=O)N[C@H](C(=O)N[C@@H](Cc1c[nH]cn1)C(=O)N1CCC[C@H]1C(=O)N[C@@H](CCCCN)C(=O)N1CCC[C@H]1C(=O)N[C@@H](C)C(=O)N[C@@H](CCC(N)=O)C(=O)N1CCC[C@H]1C(N)=O)C(C)C)[C@@H](C)O [C18-s2, C18-ARLPRTMVHPKPAQP] (Stearoyl-ARLPRTMVHPKPAQP-NH2)	10	8.2		
CC(=O)N[C@H]1[C@H]([C@H](O)[C@H](O)CO)O[C@@](O[C@H]2[C@@H](O)[C@@H](CO)O[C@@H](O[C@H]3[C@H](O)[C@@H](O)C(O)O[C@@H]3CO)[C@@H]2O)(C(=O)O)C[C@@H]1O (stereo partly drawn) [α (2, 3)-sialyllactose]				Kd (hemagglutinin): 3200 µM
AEGDDPAKAAFDSLQ-NH2 [pVIII, reference compound]			s-2>e-1>A-1>pVIII	
ARLPPTMVRPNGPQP-NH2 [e-1]			s-2>e-1>A-1>pVIII	relative value of resonance (amount of binding) with A-1 taken as 1 [3]: 1.2 fold
ARLPRTMVHPKPAQP-NH2 [s-2]			s-2>e-1>A-1>pVIII	binding activity to hemagglutinin relative to A-1 (A-1 taken as 1) [4]: about 3 fold; relative value of resonance (amount of binding) with A-1 taken as 1 [3]: 2.1 fold; binding activity to hemagglutinin relative to A-1 (A-1 taken as 1) [5]: about 3 fold
ARLSPTMVHPNGAQP [A-1, ARLSPTMVHPNGAQP-NH2, reference compound]			s-2>e-1>A-1>pVIII	IC50 [6]: 1900 µM
